Experimental data as given in patent publication US8835440B2, “Cyclic pyrimidin-4-carboxamides as CCR2 receptor antagonists for treatment of inflammation, asthma and COPD” (Boehringer Ingelheim International GmbH, priority 2008, dated 2014).
pKi: −log10 of the molar value.

Target: T1, CCR2 (Homo sapiens, UniProt P41597)
T1 construct: Membranes were prepared from THP-1 cells; endogenous in cells; host or cells: THP-1 cells (membrane preparation)
T1 sequence (P41597 1-360 isoform P41597-2): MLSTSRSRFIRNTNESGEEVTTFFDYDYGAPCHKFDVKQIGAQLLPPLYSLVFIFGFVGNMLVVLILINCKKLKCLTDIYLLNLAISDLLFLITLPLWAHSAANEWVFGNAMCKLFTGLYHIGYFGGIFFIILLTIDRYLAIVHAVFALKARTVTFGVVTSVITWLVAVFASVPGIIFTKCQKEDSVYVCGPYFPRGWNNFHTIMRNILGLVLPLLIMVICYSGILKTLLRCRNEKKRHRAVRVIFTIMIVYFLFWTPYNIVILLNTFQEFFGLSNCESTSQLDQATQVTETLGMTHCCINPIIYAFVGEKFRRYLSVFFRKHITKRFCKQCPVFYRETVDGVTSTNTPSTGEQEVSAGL
Test: CCR2 receptor membrane binding assay ([125I]MCP-1, THP-1 cell membranes, SPA beads)
Conditions: for remaining activity at 10 µM: @ 10 μM test compound, THP-1 membranes, read-out: CCR2 % ctrl @ 10 μM; for pKi: dissociation constant hKi, [125I]MCP-1 binding to THP-1 membranes
How it was run: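 Human THP-1 monocytic cell membranes, pre-coupled to WGA-PVT SPA beads, were incubated with compound and [125I]MCP-1 (ca. 25000 cpm) in 25 mM HEPES pH 7.2, 5 mM MgCl2, 0.5 mM CaCl2, 0.2% BSA, at 1% DMSO final. Bound radioactivity was counted after 8 h, and Ki was obtained by iterative mass-action fitting.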

| remaining activity at 10 µM [%] | pKi | Compound |
| --- | --- | --- |
| 9 | 6.88 | Cc1c(NCCc2ccc(Cl)c(Cl)c2)ncnc1C(=O)N1CCC(N2CCOC(C)C2)CC1 (stereo not shown) [Example 237] |
| 14 | 6.62 | Cc1c(NCc2ccc(Cl)c(Cl)c2)ncnc1C(=O)N1CCC(N2CCC(O)C2)CC1 (stereo not shown) [Example 238] |
| 33 | 5.63 | Cc1c(NCc2cccc(-c3ccccc3)c2)ncnc1C(=O)N1CCC(N2CCC(O)C2)CC1 (stereo not shown) [Example 239] |
| 7 | 6.98 | Cc1c(NCCc2ccc(Cl)c(Cl)c2)ncnc1C(=O)N1CCC(N2CCOC(c3ccccc3)C2)CC1 (stereo not shown) [Example 240] |
| 21 | 6.28 | Cc1c(NCCc2ccc(Cl)c(Cl)c2)ncnc1C(=O)N1CCC(N2CCC(O)C2)CC1 (stereo not shown) [Example 241] |
| 21 | 6.29 | Cc1c(NCc2ccc(Cl)c(Cl)c2)ncnc1C(=O)N1CCC(N2CCCOCC2)CC1 [Example 242] |
| 40 | 5.79 | Cc1c(NCc2cccc(-c3ccccc3)c2)ncnc1C(=O)N1CCC(N2CCCOCC2)CC1 [Example 243] |
| 24 | 6.44 | Cc1c(NCc2ccc(Cl)c(Cl)c2)ncnc1C(=O)N1CCC(N2CCC(F)(F)CC2)CC1 [Example 244] |
| 15 | 6.26 | Cc1c(NCc2ccc(Cl)c(Cl)c2)ncnc1C(=O)N1CCC(N2CCCC(O)CC2)CC1 (stereo not shown) [Example 245] |
| 2 | 6.51 | Cc1c(NCCc2ccc(Cl)c(Cl)c2)ncnc1C(=O)N1CCC(N2CC[C@@H](O)[C@@H](O)C2)CC1 [Example 246] |
| 6 | 6.83 | Cc1c(NCCc2ccc(Cl)c(Cl)c2)ncnc1C(=O)N1CCC(N2CCCC(O)CC2)CC1 (stereo not shown) [Example 247] |
| 17 | – | CNC(=O)C1CCN(C2CCN(C(=O)c3nc(C)nc(NCc4ccc(C(C)(C)C)cc4)c3C)CC2)CC1 [Example 248] |
| 36 | 5.49 | CN(C1CCN(C2CCN(C(=O)c3ncnc(NCc4ccc(C(C)(C)C)cc4)c3C#N)CC2)CC1)S(C)(=O)=O [Example 249] |
| 32 | 5.90 | Cc1c(NCc2ccc(C(C)(C)C)cc2)ncnc1C(=O)N1CCC(N2CCCCC2)C1 (stereo not shown) [Example 250] |
| 75 | 6.36 | Cc1c(NCc2ccc(C(C)(C)C)cc2)ncnc1C(=O)N1CCC(N2CCCC2)C1 (stereo not shown) [Example 251] |
| 6 | 7.42 | Cc1c(NCCc2ccc(Cl)c(Cl)c2)ncnc1C(=O)N1CCC(C(N)=O)(N2CCCCC2)CC1 [Example 252] |
| 17 | 6.46 | Cc1c(NCCc2ccc(Cl)c(Cl)c2)ncnc1C(=O)N1CCC(N2CCCC2)CC1 [Example 253] |
| 11 | 7.00 | CNS(=O)(=O)C1CCN(C2CCN(C(=O)c3ncnc(NCc4ccc(Cl)c(Cl)c4)c3C)CC2)CC1 [Example 254] |
| 5 | 7.48 | Cc1c(NCc2ccc(Cl)c(Cl)c2)ncnc1C(=O)N1CCC(N2CCC(N(C)S(C)(=O)=O)CC2)CC1 [Example 255] |
| 25 | 6.36 | Cc1c(NCc2ccc(Cl)c(Cl)c2)ncnc1C(=O)N1CCC(N2CC[C@H](C(N)=O)C2)CC1 [Example 256] |
| 14 | 6.73 | CNC(=O)[C@H]1CCN(C2CCN(C(=O)c3ncnc(NCc4ccc(Cl)c(Cl)c4)c3C)CC2)C1 [Example 257] |
| 4 | 7.19 | Cc1c(NCc2ccc(Cl)c(Cl)c2)ncnc1C(=O)N1CCC(N2CC[C@H](NS(C)(=O)=O)C2)CC1 [Example 258] |
| 16 | 6.56 | Cc1c(NCc2ccc(Cl)c(Cl)c2)ncnc1C(=O)N1CCC(N2CC[C@@H](NS(C)(=O)=O)C2)CC1 [Example 259] |
| 20 | 6.31 | CNC(=O)[C@@H]1CCN(C2CCN(C(=O)c3ncnc(NCc4ccc(Cl)c(Cl)c4)c3C)CC2)C1 [Example 260] |
| 8 | 6.92 | CNC(=O)C1CCN(C2CCN(C(=O)c3ncnc(NCc4ccc(C(C)(C)C)cc4)c3C)CC2)CC1 [Example 261] |
| 13 | 6.65 | CNS(=O)(=O)C1CCN(C2CCN(C(=O)c3nc(C)nc(NCc4ccc(C(C)(C)C)cc4)c3C)CC2)CC1 [Example 262] |
| 27 | 5.71 | COC1CN(C(=O)c2ncnc(NCc3ccc(C(C)(C)C)cc3)c2C)CCC1N1CCC(N(C)S(C)(=O)=O)CC1 (stereo not shown) [Example 263] |
| 3 | 7.39 | CCS(=O)(=O)NC1CCN(C2CCN(C(=O)c3ncnc(NCc4ccc(C(C)(C)C)cc4)c3C)CC2)CC1 [Example 264] |

| remaining activity at 10 µM [%] | pKi | Compound |
| --- | --- | --- |
| 23 | 6.34 | Cc1c(NCc2ccc(C(C)(C)C)cc2)ncnc1C(=O)N1CCC(N2CC[C@@H](C(N)=O)C2)CC1 [Example 265] |
| 20 | 6.31 | Cc1nc(NCc2ccc(C(C)(C)C)cc2)c(C)c(C(=O)N2CCC(N3CC[C@@H](C(N)=O)C3)CC2)n1 [Example 267] |
| 5 | 6.92 | Cc1c(Cc2ccc(C(C)(C)C)cc2)ncnc1C(=O)N1CCC(N2CCC(N(C)S(C)(=O)=O)CC2)CC1 [Example 268] |
| 15 | 5.79 | Cc1c(/C=C/c2ccc(C(C)(C)C)cc2)ncnc1C(=O)N1CCC(N2CCOCC2)CC1 [Example 271] |
| 8 | 6.81 | Cc1c(CCc2ccc(C(C)(C)C)cc2)ncnc1C(=O)N1CCC(N2CCC(N(C)S(C)(=O)=O)CC2)CC1 [Example 272] |
| 48 | 5.35 | Cc1c(C(=O)N2CCC(N3CCC(NS(C)(=O)=O)CC3)CC2)ccnc1NCc1ccc(Cl)c(Cl)c1 [Example 274] |
| 19 | 6.23 | Cc1c(C(=O)N2CCC(N3CCC(O)CC3)CC2)ccnc1NCc1ccc(Cl)c(Cl)c1 [Example 275] |
| 0 | 7.54 | Cc1c(NCc2ccc(C(C)(C)C)cc2)ncnc1C(=O)N1CCC(N(C)C2CCOCC2)CC1 [Example 275a] |
| 3 | 7.59 | COC1COCCC1N(C)C1CCN(C(=O)c2ncnc(NCc3ccc(C(C)(C)C)cc3)c2C)CC1 (stereo not shown) [Example 275b] |
| 38 | 5.53 | Cc1c(NCc2ccc(C(C)(C)C)cc2)ncnc1C(=O)N1CCC(N(C)C2CC(C)OC(C)C2)CC1 (stereo not shown) [Example 275c] |
| 10 | 6.50 | Cc1c(NCc2ccc(C(C)(C)C)cc2)ncnc1C(=O)N1CCC(N(C)C2CCC(F)(F)CC2)CC1 [Example 275d] |
| – | 8.40 | CO[C@@H]1COCC[C@@H]1NC1CCN(C(=O)c2ncnc(NC[C@H]3CCC[C@@H](c4ccc(C)o4)C3)c2C)CC1 [Example 275da] |
| – | 7.48 | CO[C@@H]1COCC[C@@H]1NC1CCN(C(=O)c2ncnc(NC[C@@H]3CCC[C@H](c4ccc(C)o4)C3)c2C)CC1 [Example 275db] |
| – | 7.96 | CO[C@@H]1COCC[C@@H]1NC1CCN(C(=O)c2nc(C)nc(NC[C@H]3C[C@@H](c4ccccc4)C3)c2C)CC1 [Example 275dc] |
| – | 7.40 | CO[C@H]1COCC[C@H]1NC1CCN(C(=O)c2ncnc(NC[C@H]3C[C@@H](c4ccccc4)C3)c2C)CC1 [Example 275dd] |
| – | 7.80 | CO[C@@H]1COCC[C@@H]1NC1CCN(C(=O)c2nc(C)nc(NC[C@H]3C[C@H](c4ccccc4)C3)c2C)CC1 [Example 275de] |
| – | 7.82 | CO[C@@H]1COCC[C@@H]1NC1CCN(C(=O)c2ncnc(NC[C@H]3C[C@H](c4ccccc4)C3)c2C)CC1 [Example 275df] |
| – | 7.92 | CO[C@@H]1COCC[C@@H]1NC1CCN(C(=O)c2ncnc(NC[C@H]3C[C@@H](c4ccccc4)C3)c2C)CC1 [Example 275dg] |
| – | 8.52 | CO[C@H]1COCC[C@H]1NC1CCN(C(=O)c2ncnc(NC[C@H]3CCC[C@@H](c4ccccc4)C3)c2C)CC1 [Example 275dh] |
| – | 9.00 | CO[C@@H]1COCC[C@@H]1NC1CCN(C(=O)c2ncnc(NC[C@H]3CCC[C@@H](c4ccccc4)C3)c2C)CC1 [Example 275di] |
| – | 8.40 | COC1COCCC1N(C)C1CCN(C(=O)c2ncnc(NC[C@H]3CCC[C@@H](c4ccccc4)C3)c2C)CC1 (stereo partly shown) [Example 275dj] |
| – | 7.77 | C=Cc1c(NC[C@H]2CCC[C@@H](c3ccccc3)C2)ncnc1C(=O)N1CCC(N2CCC(N(C)S(C)(=O)=O)CC2)CC1 [Example 275dk] |
| – | 6.43 | C#Cc1c(NC[C@H]2CCC[C@@H](c3ccccc3)C2)ncnc1C(=O)N1CCC(N2CCC(N(C)S(C)(=O)=O)CC2)CC1 [Example 275dl] |
| 23 | 5.73 | CCc1c(NCc2cccc(-c3ccccc3)c2)ncnc1C(=O)N1CCC(N2CCOCC2)CC1 [Example 276] |
| 34 | 5.86 | O=C(c1ncnc(NCc2cccc(-c3ccccc3)c2)c1Br)N1CCC(N2CCOCC2)CC1 [Example 277] |
| 32 | 5.97 | O=C(c1ncnc(NCc2cccc(-c3ccccc3)c2)c1Br)N1CCC(N2CCC(O)CC2)CC1 [Example 278] |
| 9 | 6.72 | Cc1c(NCCc2ccc(Cl)c(Cl)c2)ncnc1C(=O)N1CCC(N2CCOCC2)CC1 [Example 279] |
